Measurements: patent US7838496B2, “Template-fixed peptidomimetics as medicaments against HIV and cancer” (Polyphor AG/Ltd., priority 2003, dated 2010)
*1 amine or outer side, *2 acyl side, *3 side chain or, on linkers, in order; H or OH if unused. Where a SMILES comes first, the peptide text is derived from it. Bridges are numbered along the chain shown (N, C = ends). [ ]: non-standard residue; d: D form. NHCH2(1,3-C6H4)CH2CO = O=C(Cc1cccc(CN[*:1])c1)[*:2]; 2Nal = N[C@@H](Cc1ccc2ccccc2c1)C(=O)O; Cit = NC(=O)NCCC[C@H](N)C(=O)O; Nlys = NCCCCNCC(=O)O

What was measured:
[1] = target: T1, CXCR4 (Homo sapiens, UniProt P61073); test: Ca2+ assay: CXCR4 antagonizing activity of the peptides; assay type: cell-based; conditions: CXCR4 transfected pre-B cells, Fura-2 fluorescence, 37° C.
T1 construct: expressed in transfected cells
Method: 2.2. Ca^2+− assay: CXCR4Antagonizing Activity of the Peptides
3-4 Mio CXCR4 transfected pre-B cells [see references 1, 2 and 3, below] per measurement were resuspended in 200 μl MSB (20 mM 4-(2-Hyddroxyethyl)-piperazin-1-ethansulfonic acid (HEPES), 136 mM NaCl, 4.8 mM KCl and 1 mM CaCl2) containing 5 mM D-Glucose and were loaded with 0.75 μl of 1 mM Fura-2-acetoxymethylester for 17 minutes at 37° C. The cells were washed free from Fura-2-AM with a platelet centrifuge and resuspended in 800 R1 MSB containing 5 mM D-Glucose. The peptides to be administered were diluted to a 100 fold end concentration in MSB/0.2% PPL, and 8 pl were injected. [Ca^2+ ]i-dependent fluorescence change in response to single or sequential stimulation with the peptide was recorded with a fluorimeter at an excitation wavelength of 340 nm and an end emission wavelength of 510 nm [see ref. 4, below]. Measurements were done under continuous stirring at 37° C. The signal intension was calibrated with 3 mM4 CaCl2/1 nM lonomycin (maximal fura-2-acetoxymethylester saturation) and […] MnCl2 (minimal Fura-2-acetoxymethylester saturation) and [Ca^2+]i-changes are presented in % fura-2-acetoxymethylester saturation.
MSB: 20 nmM HEPES, 136 mM NaCl, 4.8 mM KCl, 1 mM CaCl2.2H2O, pH 7.4; Osmolarity: 310 mOsm adjusted with NaOH or HCl, adjusted with dH2O or PBS.
MSB plus: 5 mM D-glucose in MSB (50 mg/50 mL).
Fura 2-acetoxymethylester: 1 mM stock solution in dimethylsulfoxide.

[2] = system: 'CCR5' cells / Hut/4-3 cells co-cultivation; test: FIGS-Assay (co-cultivated cell cultures, beta-galactosidase/ONPG read-out); assay type: cell-based; conditions: 48 hours of co-cultivation
Method: The assay was performed according to ref. 5, below. Stock dilutions of the peptides (10 mM) were prepared by dissolving in 10 mM Tris-HCl at room temperature. Stock solutions were kept at +4° C., light protected. Working dilutions were prepared extemporaneously by serial dilution in Phosphate Buffered Saline (PBS) and added in a final volume of 10 μL directly to the cell cultures. After 48 hours of co-cultivation the cultures were rinsed with PBS and then exposed to glutaraldehyde/formaldehyde (0.2%/2%) in PBS for five minutes. For photometric quantification the fixed cultures were subsequently incubated with ortho-nitro-phenyl-galactopyranoside (ONPG) as a O-galactosidase substrate, which was enzymatically converted into the chromophore ortho-nitrophenol (ONP). The read out is directly obtained by measuring optical density of wells at 405 nm in an IEMS 96 well-plate reader.
(§1) All fine chemicals came from Merck (D)armstadt, Germany).

[3] = in vitro; assay type: cell-based
Method: The cytotoxicity of the peptides to HELA cells (Acc57) and COS-7 cells (CRL-1651) was determined using the MTl reduction assay [see ref. 6 and 7, below]. Briefly the method was as follows: HELA cells and COS-7 cells were seeded at 7.0·10^3 and, respectively, 4.5·10^3 cells per well and grown in 96-well microtiter plates for 24 hours at 37° C. at 5% CO2. At this point, time zero (Tz) was determined by MTT reduction (see below). The supernatant of the remaining wells was discarded and fresh medium and the peptides in serial dilutions of 12.5, 25 and 50 μM were pipeted into the wells. Each peptide concentration was assayed in triplicate. Incubation of the cells was continued for 48 hours at 37° C. at 5% CO2. Wells were then washed once with PBS and subsequently 100 μl MTT reagent (0.5 mg/mL in medium RPMI1640 and, respectively, DMEM) was added to the wells. This was incubated at 37° C. for 2 hours and subsequently the medium was aspirated and 100 μl isopropanol was added to each well. The absorbance at 595 nm of the solubilized product was measured (OD595peptide). For each concentration averages were calculated from triplicates. The percentage of growth was calculated as follows: (OD595peptide-OD595Tz-OD595Empty well)/(OD595Tz-OD595Empty well)×100% and was plotted for each peptide concentration.
The LC 50 values (Lethal Concentration, defined as the concentration that kills 50% of the cells) were determined for each peptide by using the trend line function of EXCEL (Microsoft Office 2000) for the concentrations (50, 25, 12.5 and 0 μM), the corresponding growth percentages and the value −50, (=TREND(C50:C0,%50:%0,−50))
as §1

[4] = system: human red blood cells (hRBC); assay type: cell-based; conditions: red cells of human, 1 h
Method: The peptides were tested for their hemolytic activity against human red blood cells (hRBC). Fresh hRBC were washed three times with phosphate buffered saline (PBS) by centrifugation for 10 min at 2000×g. Peptides at a concentration of 100 μM were incubated with 20% v/v hRBC for 1 hour at 37-C. The final erythrocyte concentration was approximately 0.9×10^9 cells per mL. A value of 0% resp. 100% cell lysis was determined by incubation of the hRBC in the presence of PBS alone and respectively 0.1% Triton X-100 in H2O. The samples were centrifuged and the supernatant was 20-fold diluted in PBS buffer and the optical density (OD) of the sample at […] was measured. The 100% lyses value (OD540H2O) gave an OD540 of approximately 1.3-1.8. Percent hemolysis was calculated as follows: (OD540peptide/OD540H2O)×100%.

[5] = target: CCRF-CEM cells (Homo sapiens, UniProt P61073); conditions: read-out: IC50 (μM) Cell migration assay; CCRF-CEM cells migrating to 1 nM SDF-1, 4 hours
Chain of CCRF-CEM cells (P61073 whole entry): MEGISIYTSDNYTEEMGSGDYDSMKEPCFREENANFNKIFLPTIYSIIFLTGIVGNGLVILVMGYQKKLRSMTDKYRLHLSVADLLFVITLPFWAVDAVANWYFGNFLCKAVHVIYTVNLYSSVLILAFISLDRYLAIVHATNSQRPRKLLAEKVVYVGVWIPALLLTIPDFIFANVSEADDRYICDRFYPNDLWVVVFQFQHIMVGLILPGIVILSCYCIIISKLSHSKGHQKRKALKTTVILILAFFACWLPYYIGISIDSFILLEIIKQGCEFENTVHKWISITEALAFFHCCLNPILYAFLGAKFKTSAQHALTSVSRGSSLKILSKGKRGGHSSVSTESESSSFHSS
Method: BELA cells and CCRF-CEM cells were maintained in RPMI1640 plus 5% FBS, Pen/Strept and 2 mM L-Glutamine. […] All cell lines were grown at 37° C. at 5% CO2. Cell media, media supplements, PBS-buffer, HEPES, Pen/Strept., L-Glutamine and sera were purchased from Gibco (Pailsey, UK). All fine chemicals came from Merck (D)armstadt, Germany).
Chemotactic Assay (Cell Migration Assay)
The chemotactic response of CCRF-CEM cells to a gradient of stromal cell-derived factor 1 a (SDF-1) was measured using disposable assay plates from Neuroprobe (5 μ pore size) (Gaithersburg, Md.), according to the manufacturer's directions and references therein [especially ref. 8, below]. Briefly, one 175 cm^2 flask was washed once with Dubecco's phosphate buffered saline (DPBS), and trypsinized for 10 minutes or until cells had lifted. The trypsin was neutralized by the addition of fresh medium containing serum and the cells were pelleted, washed once in DPBS, and resuspended at 1-0.5×10^7 cells/ml in RPM!+0.5% bovine serum albumin (BSA). 451 μl of cell suspension were mixed with 5μ of 10-fold concentrated PEM peptide diluted in the same assay medium. 35 μl of this mixture were applied to the top of the assay filter. The cells were allowed to migrate (at 37°) into the bottom chamber of the assay plate containing 1 nM SDF-1. After 4 hours, the filter was removed and MTT was added to the migrated cells to a final concentration of 0.5 mg/ml, and incubated for a further 4 hours. After labeling with MTT, all medium was removed and 100 μl of isopropanol+10 mM HCl were added to the cells. The optical absorbance at 595 nm (ABS595) was read using a Tecan Genios plate reader with Magellan software. The number of cells migrated was determined by comparing ABS595 values against a standard curve generated with a known number of cells in the assay plate and were plotted against SDF-1 concentration to obtain a sigmoidal curve and to determine the IC50 values. The values for IC50 were determined using the Trendline function in Microsoft Excel by fitting a logarithmic curve to the averaged datapoints.

T1 sequence (P61073 whole entry): as above

Row | SMILES | IC50 [1] [nM] | FIGS % inhibition, At 300 nM ([2]; At 300 nM) | CC50 at 48 h [3] [µM] | Hemolysis at 100 μM [4] [%] | IC50 [5] [µM] | FIGS % inhibition at 200 nM [2] [%] | CC50 [3] [µM]
1 | N=C(N)NCCC[C@H](NC(=O)[C@@H]1CSSC[C@H](NC(=O)[C@H](Cc2ccc3ccccc3c2)NC(=O)[C@H](CCCNC(=N)N)NC(=O)[C@@H](N)CCCNC(=N)N)C(=O)N[C@@H](Cc2ccc(O)cc2)C(=O)N[C@@H](CCCNC(N)=O)C(=O)N[C@@H](CCCCN)C(=O)N2CCC[C@@H]2C(=O)N2CCC[C@H]2C(=O)N[C@@H](Cc2ccc(O)cc2)C(=O)N[C@@H](CCCNC(=N)N)C(=O)N[C@@H](CCCNC(N)=O)C(=O)N1)C(=O)O [Example 20] (H-RR[2Nal]CY[Cit]K[dP]PYR[Cit]CR-OH; disulfide 4-13) | 15.5 | At 300 nM: 100% | 138 | 0.2 | – | – | –
2 | N=C(N)NCCC[C@H](NC(=O)[C@@H]1CSSC[C@H](NC(=O)[C@H](Cc2ccc3ccccc3c2)NC(=O)[C@H](CCCNC(=N)N)NC(=O)CNCCCCN)C(=O)N[C@@H](Cc2ccc(O)cc2)C(=O)N[C@@H](CCCNC(N)=O)C(=O)N[C@@H](CCCCN)C(=O)N2CCC[C@@H]2C(=O)N2CCC[C@H]2C(=O)N[C@@H](Cc2ccc(O)cc2)C(=O)N[C@@H](CCCNC(=N)N)C(=O)N[C@@H](CCCNC(N)=O)C(=O)N1)C(N)=O [Example 16] (H-[Nlys]R[2Nal]CY[Cit]K[dP]PYR[Cit]CR-NH2; disulfide 4-13) | – | – | – | – | 1.04 | – | –
3 | N=C(N)NCCC[C@H](NC(=O)[C@@H]1CSSC[C@H](NC(=O)[C@H](Cc2ccc3ccccc3c2)NC(=O)[C@H](CCCNC(=N)N)NC(=O)[C@@H](N)CCCNC(=N)N)C(=O)N[C@@H](Cc2ccc(O)cc2)C(=O)N[C@@H](CCCNC(=N)N)C(=O)N[C@H](CCCCN)C(=O)N2CCC[C@H]2C(=O)N[C@@H](Cc2ccc(O)cc2)C(=O)N[C@@H](CCCNC(N)=O)C(=O)N1)C(N)=O [Example 2] (H-RR[2Nal]CYR[dK]PY[Cit]CR-NH2; disulfide 4-11) | – | – | 58 | 0.9 | – | 3.8 | –
4 | N=C(N)NCCC[C@H](NC(=O)[C@@H]1CSSC[C@H](NC(=O)[C@H](Cc2ccc3ccccc3c2)NC(=O)[C@H](CCCNC(=N)N)NC(=O)[C@@H](N)CCCNC(=N)N)C(=O)N[C@@H](Cc2ccc(O)cc2)C(=O)N[C@@H](CCCNC(N)=O)C(=O)N[C@@H](CCCCN)C(=O)N2CCC[C@H]2C(=O)N2CCC[C@H]2C(=O)N[C@@H](Cc2ccc(O)cc2)C(=O)N[C@@H](CCCNC(=N)N)C(=O)N[C@@H](CCCNC(N)=O)C(=O)N1)C(N)=O [Example 24] (H-RR[2Nal]CY[Cit]KPPYR[Cit]CR-NH2; disulfide 4-13) | 100 | – | 67 | 1.1 | – | 17.1 | –
5 | N=C(N)NCCC[C@H](NC(=O)[C@@H]1CSSC[C@H](NC(=O)[C@H](Cc2ccc3ccccc3c2)NC(=O)[C@H](CCCNC(=N)N)NC(=O)[C@@H](N)CCCNC(=N)N)C(=O)N[C@@H](Cc2ccc(O)cc2)C(=O)N[C@@H](CCCCN)C(=O)N[C@H](CCCCN)C(=O)N2CCC[C@H]2C(=O)N[C@@H](Cc2ccc(O)cc2)C(=O)N[C@@H](CCCNC(N)=O)C(=O)N1)C(N)=O [Example 1] (H-RR[2Nal]CYK[dK]PY[Cit]CR-NH2; disulfide 4-11; N-terminus assumed) | – | – | – | 0.4 | – | – | 75
6 | N=C(N)NCCC[C@H](NC(=O)[C@@H]1CSSC[C@H](NC(=O)[C@H](Cc2ccc3ccccc3c2)NC(=O)[C@H](CCCNC(=N)N)NC(=O)[C@@H](N)CCCNC(=N)N)C(=O)N[C@@H](Cc2ccc(O)cc2)C(=O)N[C@@H](CCCNC(=N)N)C(=O)N2CCC[C@@H]2C(=O)N2CCC[C@H]2C(=O)N[C@@H](Cc2ccc(O)cc2)C(=O)N[C@@H](CCCNC(=N)N)C(=O)N1)C(N)=O [Example 5] (H-RR[2Nal]CYR[dP]PYRCR-NH2; disulfide 4-11; N-terminus assumed) | 132 | – | 67 | 0.7 | – | 16.4 | –
7 | N=C(N)NCCC[C@H](NC(=O)[C@@H]1CSSC[C@H](NC(=O)[C@H](Cc2ccc3ccccc3c2)NC(=O)[C@H](CCCNC(=N)N)NC(=O)[C@@H](N)CCCNC(=N)N)C(=O)N[C@@H](Cc2ccc(O)cc2)C(=O)N[C@@H](CCCCN)C(=O)N2CCC[C@@H]2C(=O)N2CCC[C@H]2C(=O)N[C@@H](Cc2ccc(O)cc2)C(=O)N[C@@H](CCCNC(=N)N)C(=O)N1)C(N)=O [Example 4] (H-RR[2Nal]CYK[dP]PYRCR-NH2; disulfide 4-11; N-terminus assumed) | 848 | – | > 300 | 0.3 | – | 26.0 | –
8 | N=C(N)NCCC[C@H](NC(=O)[C@@H]1CSSC[C@H](NC(=O)[C@H](Cc2ccc3ccccc3c2)NC(=O)[C@H](CCCNC(=N)N)NC(=O)[C@@H](N)CCCNC(=N)N)C(=O)N[C@@H](Cc2ccc(O)cc2)C(=O)N[C@@H](CCCNC(N)=O)C(=O)N[C@@H](CCCCN)C(=O)NCc2cccc(c2)CC(=O)N[C@@H](Cc2ccc(O)cc2)C(=O)N[C@@H](CCCNC(=N)N)C(=O)N[C@@H](CCCNC(N)=O)C(=O)N1)C(N)=O [Example 22] (H-RR[2Nal]CY[Cit]K[NHCH2(1,3-C6H4)CH2CO]YR[Cit]CR-NH2; disulfide 4-12) | 80.3 | – | 75 | 0.1 | – | 22.5 | –
9 | N=C(N)NCCC[C@H](NC(=O)[C@@H]1CSSC[C@H](NC(=O)[C@H](Cc2ccc3ccccc3c2)NC(=O)[C@H](CCCNC(=N)N)NC(=O)[C@@H](N)CCCNC(=N)N)C(=O)N[C@@H](Cc2ccc(O)cc2)C(=O)N[C@@H](CCCNC(N)=O)C(=O)N[C@@H](CCCCN)C(=O)N[C@H]2C[C@H]3C(=O)N[C@@H](CC(=O)N[C@@H](Cc4ccc(O)cc4)C(=O)N[C@@H](CCCNC(=N)N)C(=O)N[C@@H](CCCNC(N)=O)C(=O)N1)C(=O)N3C2)C(N)=O [Example 21] | – | – | 82 | 0.8 | – | 29.6 | –
10 | N=C(N)NCCC[C@H](NC(=O)[C@@H]1CSSC[C@H](NC(=O)[C@H](Cc2ccc3ccccc3c2)NC(=O)[C@H](CCCNC(=N)N)NC(=O)[C@@H](N)CCCNC(=N)N)C(=O)N[C@@H](Cc2ccc(O)cc2)C(=O)N[C@@H](CCCCN)C(=O)N[C@H](CCCCN)C(=O)N2CCC[C@H]2C(=O)N[C@@H](CCCNC(=N)N)C(=O)N[C@@H](CCCNC(N)=O)C(=O)N1)C(N)=O [Example 3] (H-RR[2Nal]CYK[dK]PR[Cit]CR-NH2; disulfide 4-11; N-terminus assumed) | 490 | – | 52 | 0.7 | – | 5.7 | –
